Data set [1] deals with dog. Particulars: Subchronic oral toxicity in nonrodent, beagle, Feed, dose end: 13 week, group: systemic.
For data set [2], the system named is rat. Particulars: Subchronic oral toxicity in rodents, wistar, Feed, dose end: 90 day, group: systemic, systemic / in life observation / body weight / body weight + systemic / in life observation / body weight / body weight gain + systemic / in….
Data set [3] has as its system mouse. The note with it: Carcinogenicity; cd1; Oral; [Not Specified]; group: systemic; systemic / in life observation / body weight / body weight gain.
For data set [4], the system named is rabbit. Particulars: Prenatal developmental toxicity study, new zealand white, Oral, Gavage/Intubation, dose end: 19 GD.
Data set [5] concerns rat. Particulars: Combined chronic toxicity/carcinogenicity; wistar; Oral; Feed; dose end: 104 week; group: systemic; systemic / in life observation / body weight / body weight + systemic / in life observation / body weight / body weight gain.
Data set [6] has as its system rat. Particulars: Prenatal developmental toxicity study, sprague dawley, Oral, Gavage/Intubation, dose end: 15 GD.
Data set [7] deals with dog. The note with it: Chronic toxicity, beagle, Oral, Feed, dose end: 52 week, group: systemic.
The subject of data set [8] is rat. The note with it: Multigenerational reproductive toxicity study, wistar, Oral, Feed, dose end: 2 generation.
Data set [9] deals with rat. Particulars: Sub-acute dermal toxicity, sprague dawley, Topical, dose end: 21 day, group: systemic.
In data set [10] the test system is dog. The note with it: Subchronic oral toxicity in nonrodent, beagle, Capsule, dose end: 96 day, group: systemic, systemic / in life observation / body weight / body weight gain + systemic / in life observation / clinical signs / emaciation + systemic / ….
In data set [11] the test system is rabbit. Particulars: Prenatal developmental toxicity study, new zealand white, Oral, Gavage/Intubation, dose end: 18 GD.
The test system of data set [12] is rat. The note with it: Subchronic oral toxicity in rodents, sprague dawley, Feed, dose end: 90 day, group: systemic, systemic / clinical chemistry / albumin / albumin + systemic / in life observation / body weight / body weight gain + systemic / organ ….
The subject of data set [13] is rat. Particulars: Combined chronic toxicity/carcinogenicity, sprague dawley, Oral, Feed, dose end: 104 week, group: systemic.
Data set [14] concerns dog. Particulars: Chronic toxicity; beagle; Oral; Feed; dose end: 104 week; group: systemic; systemic / clinical chemistry / alanine aminotransferase (alt/sgpt) / alanine aminotransferase (alt/sgpt) + systemic / clinical chemistry / ….
In data set [15] the test system is mouse. Particulars: Carcinogenicity, cd1, Oral, Feed, dose end: 80 week, group: systemic.
Data set [16] deals with rat. Particulars: Subchronic oral toxicity in rodents, wistar, Feed, dose end: 90 day, group: systemic.
Data set [17] concerns rat. The note with it: Prenatal developmental toxicity study, sprague dawley, Oral, Gavage/Intubation, dose end: 19 GD.
Data set [18] deals with dog. The note with it: Subchronic oral toxicity in nonrodent, beagle, Feed, dose end: 118 day, group: systemic.
[19] abbreviates: systemic / pathology microscopic / bone marrow / hyperplasia + systemic / pathology microscopic / liver / hematopoietic cell proliferation.
[20] abbreviates: systemic / pathology microscopic / bone marrow / hyperplasia + systemic / pathology microscopic / liver / hematopoietic cell proliferation….
Where [21] appears, read: group: developmental, developmental / developmental malformation / bone / supernumerary + developmental / developmental malformation / bone / extra ossification ….
[22] abbreviates: group: maternal, systemic / in life observation / body weight / body weight gain + systemic / in life observation / clinical signs / abnormal feces.
Where [23] appears, read: group: maternal, systemic / in life observation / body weight / body weight gain + systemic / in life observation / clinical signs / abnormal feces + ….
The mark [24] stands for this setting: group: developmental, developmental / developmental malformation / bone / incomplete ossification + systemic / in life observation / body weight / fetal weight.
Setting [25] is: group: maternal, systemic / in life observation / body weight / body weight gain + systemic / in life observation / food consumption / food consumption.
The mark [26] stands for this setting: systemic / in life observation / food consumption / food consumption.
[27] abbreviates: group: offspring, developmental / developmental malformation / general / runts + systemic / in life observation / body weight / offspring (pup) weight + ….
Setting [28] is: group: offspring, developmental / developmental malformation / general / runts + systemic / organ weight / thymus / absolute + systemic / organ weight / ….
Setting [29] is: group: reproductive, reproductive / offspring survival early / birth index / live birth index.
[30] abbreviates: systemic / in life observation / body weight / body weight gain.
The mark [31] stands for this setting: systemic / in life observation / clinical signs / erythema.
Setting [32] is: group: developmental, developmental / developmental malformation / bone / incomplete ossification.
The mark [33] stands for this setting: group: maternal, reproductive / reproductive performance / postimplantation loss / postimplantation loss + reproductive / reproductive performance / ….
Setting [34] is: systemic / pathology microscopic / testes / adenoma + systemic / in life observation / body weight / body weight + systemic / in life ….
Where [35] appears, read: systemic / organ weight / liver / absolute.
[36] abbreviates: systemic / organ weight / liver / absolute + systemic / organ weight / liver / relative to body weight.
The mark [37] stands for this setting: systemic / clinical chemistry / alanine aminotransferase (alt/sgpt) / alanine aminotransferase (alt/sgpt) + systemic / clinical chemistry / ….
[38] abbreviates: group: developmental, developmental / developmental malformation / bone / bent + developmental / developmental malformation / bone / full supernumerary + ….
[39] abbreviates: group: maternal, reproductive / reproductive performance / resorptions / resorptions + systemic / in life observation / clinical signs / abnormal movements….
[40] abbreviates: systemic / clinical chemistry / creatinine / creatinine + systemic / clinical chemistry / urea nitrogen / urea nitrogen.
The mark [41] stands for this setting: systemic / clinical chemistry / creatinine / creatinine + systemic / clinical chemistry / urea nitrogen / urea nitrogen + systemic / ….

Usually LOAEL stands for the lowest dose or exposure tested at which an adverse effect was seen. As usually defined, the NOAEL is the highest tested level that showed no adverse finding. For `C/C(=N\NC(=O)Nc1cc(F)cc(F)c1)c1ncccc1C(=O)O` [Diflufenzopyr], the LEL in the data set on dog [1] (setting [19]) stood at 403 mg/kg/day; in the data set on rat [2], 725 mg/kg/day; with mouse [3] it was 1000 mg/kg/day; with rabbit [4] (setting [21]), 300 mg/kg/day; with rabbit [4] (setting [22]), 100 mg/kg/day; with rat [5], 69 mg/kg/day. Also, the LEL came to 1000 mg/kg/day in the data set with rat [6] (setting [24]); 1000 mg/kg/day in the data set on rat [6] (setting [25]); 26 mg/kg/day with dog [7] (setting [26]); 552 mg/kg/day with rat [8] (setting [27]); 552 mg/kg/day in the data set with rat [8] (setting [29]). In addition, the lowest-observed-adverse-effect level (LOAEL) in the data set on dog [1] (setting [19]) was 403 mg/kg/day; with rat [2] it was 725 mg/kg/day; in the data set on mouse [3] it was above 1000 mg/kg/day; with rabbit [4] (group: developmental, developmental / developmental malformation / bone / supernumerary), 300 mg/kg/day; in the data set on rabbit [4] (setting [22]), 100 mg/kg/day; with rat [5], above 518 mg/kg/day. For the same molecule, the lowest-observed-adverse-effect level (LOAEL) in the data set with rat [6] (setting [24]) stood at 1000 mg/kg/day; with rat [6] (setting [25]), 1000 mg/kg/day; with dog [7] (systemic / hematology / reticulocyte / reticulocyte + systemic / pathology microscopic / bone marrow / hyperplasia) it was 299 mg/kg/day; with rat [8] (setting [27]), 552 mg/kg/day; in the data set on rat [8] (setting [29]), 552 mg/kg/day. Moreover, the NEL was 58 mg/kg/day with dog [1] (setting [20]); 352 mg/kg/day in the data set with rat [2]; 500 mg/kg/day with mouse [3]; 100 mg/kg/day in the data set with rabbit [4] (setting [21]); 30 mg/kg/day in the data set on rabbit [4] (setting [23]); 22 mg/kg/day in the data set on rat [5]. In addition, the NEL in the data set with rat [6] (setting [24]) was 300 mg/kg/day; with rat [6] (setting [25]) it was 300 mg/kg/day; in the data set with dog [7] (setting [26]) it was below 26 mg/kg/day; in the data set with rat [8] (setting [28]) it was 126 mg/kg/day; in the data set on rat [8] (setting [29]) it was 126 mg/kg/day. Also, the no-observed-adverse-effect level (NOAEL) is 58 mg/kg/day in the data set with dog [1] (setting [20]); 352 mg/kg/day in the data set on rat [2]; at least 1000 mg/kg/day in the data set on mouse [3]; 100 mg/kg/day in the data set on rabbit [4] (setting [21]); 30 mg/kg/day with rabbit [4] (setting [23]); at least 518 mg/kg/day with rat [5]. Also, the no observed adverse effect level (NOAEL) with rat [6] (setting [24]) amounted to 300 mg/kg/day; in the data set on rat [6] (setting [25]), 300 mg/kg/day; with dog [7] (systemic / hematology / reticulocyte / reticulocyte + systemic / pathology microscopic / bone marrow / hyperplasia + systemic / hematology…), 26 mg/kg/day; in the data set with rat [8] (setting [28]) it was 126 mg/kg/day; in the data set on rat [8] (setting [29]) it was 126 mg/kg/day.

Molecule `CCCCCCCCCCCCN=C(N)N` [Dodecylguanidine] yielded an LOAEL in the data set with rat [9] (setting [30]) of 50 mg/kg/day. Also, the NOAEL with rat [9] (systemic / in life observation / body weight / body weight gain + systemic / in life observation / clinical signs / desquamation + systemic…) is 25 mg/kg/day. Moreover, in the data set with rat [9] (setting [31]), the LEL turned out to be 12.5 mg/kg/day and the NEL is below 12.5 mg/kg/day. Besides, in the data set on dog [10], the LEL turned out to be 100 mg/kg/day, the lowest observed adverse effect level (LOAEL) came out at 100 mg/kg/day, the NEL was determined as 25 mg/kg/day and the NOAEL came to 25 mg/kg/day.

Regarding `CCOC1Oc2ccc(OS(C)(=O)=O)cc2C1(C)C` (configuration not stated) [Ethofumesate], the LEL in the data set on rabbit [11] (setting [32]) worked out at 300 mg/kg/day; with rabbit [11] (setting [33]), 300 mg/kg/day; in the data set on rat [12] it was 1900 mg/kg/day; in the data set on rat [13] (setting [34]), 97 mg/kg/day; with dog [14], 619 mg/kg/day; with mouse [15] (setting [35]), 204 mg/kg/day. Moreover, the lowest-observed-adverse-effect level (LOAEL) with rabbit [11] (setting [32]) was 300 mg/kg/day; with rabbit [11] (setting [33]) it was 300 mg/kg/day; in the data set on rat [12], 1900 mg/kg/day; in the data set with rat [13] (setting [30]), 469 mg/kg/day; with dog [14] it was 619 mg/kg/day; in the data set on mouse [15] (setting [36]), above 2140 mg/kg/day. Also, the NEL was 30 mg/kg/day in the data set with rabbit [11] (setting [32]); 30 mg/kg/day in the data set on rabbit [11] (setting [33]); 190 mg/kg/day in the data set with rat [12]; below 97 mg/kg/day with rat [13] (setting [34]); 109 mg/kg/day with dog [14]; below 204 mg/kg/day with mouse [15] (setting [35]). The NOAEL was 30 mg/kg/day in the data set on rabbit [11] (setting [32]); 30 mg/kg/day in the data set on rabbit [11] (setting [33]); 190 mg/kg/day in the data set with rat [12]; 127 mg/kg/day in the data set with rat [13] (systemic / in life observation / body weight / body weight gain + systemic / clinical chemistry / alkaline phosphatase (alp/alk) / alkaline …); 109 mg/kg/day in the data set with dog [14]; at least 2140 mg/kg/day with mouse [15] (setting [36]).

In the case of `CNC.Cc1cc(Cl)ccc1OCC(=O)O` [MCPA-dimethylammonium], the LOAEL in the data set on rat [16] (setting [37]) amounted to 208 mg/kg/day; with rat [17] (setting [38]), 185 mg/kg/day; in the data set on rat [17] (setting [39]) it was 185 mg/kg/day; in the data set with dog [18] (setting [40]), 2.4 mg/kg/day. In addition, the no-observed-adverse-effect level (NOAEL) with rat [16] (setting [37]) was 42 mg/kg/day; in the data set on rat [17] (setting [38]) it was 62 mg/kg/day; in the data set with rat [17] (setting [39]), 62 mg/kg/day; in the data set with dog [18] (setting [41]) it was 0.6 mg/kg/day. Moreover, the LEL was determined as 4 mg/kg/day in the data set with rat [16] (setting [36]), 185 mg/kg/day with rat [17] (setting [38]), 185 mg/kg/day in the data set on rat [17] (setting [39]) and 2.4 mg/kg/day with dog [18] (setting [40]). The NEL was below 4 mg/kg/day in the data set on rat [16] (setting [36]), 62 mg/kg/day with rat [17] (setting [38]), 62 mg/kg/day with rat [17] (setting [39]) and 0.6 mg/kg/day with dog [18] (setting [41]).
